From the NIST ThermoML archive (doi:10.1021/je900938b)
± gives the expanded uncertainty stated by the source.

Tests used:
[1] = xn = mol fraction of the nth substance listed; details: 101 kPa, Liquid, x2 = 0; for mass density: Pycnometric method
[2] = 101.3 kPa, Liquid; for mass density: Pycnometric method

Compound	viscosity ([2]; 298.15 K) [mPa·s]	viscosity ([2]; 303.15 K) [mPa·s]	mass density ([2]; 303.15 K) [kg/m3]	viscosity ([2]; 308.15 K) [mPa·s]	mass density ([2]; 308.15 K) [kg/m3]	viscosity ([2]; 313.15 K) [mPa·s]	mass density ([2]; 313.15 K) [kg/m3]	viscosity ([2]; 318.15 K) [mPa·s]	viscosity ([2]; 323.15 K) [mPa·s]	mass density ([2]; 323.15 K) [kg/m3]	viscosity ([2]; 328.15 K) [mPa·s]	viscosity ([2]; 333.15 K) [mPa·s]	mass density ([2]; 333.15 K) [kg/m3]	viscosity ([2]; 338.15 K) [mPa·s]	mass density ([2]; 338.15 K) [kg/m3]	further results
OCCO [1,2-ethanediol] + OCC(O)CO																viscosity ([1]; 298.15 K): 17.4 ± 0.39 mPa·s; mass density ([1]; 303.15 K): 1107.1 ± 11 kg/m3; viscosity ([1]; 303.15 K): 13.8 ± 0.31 mPa·s; mass density ([1]; 308.15 K): 1103.5 ± 11 kg/m3; viscosity ([1]; 308.15 K): 11.5 ± 0.26 mPa·s; mass density ([1]; 313.15 K): 1100.3 ± 11 kg/m3; viscosity ([1]; 313.15 K): 9.42 ± 0.21 mPa·s; viscosity ([1]; 318.15 K): 8.1 ± 0.18 mPa·s; mass density ([1]; 323.15 K): 1093.5 ± 11 kg/m3; viscosity ([1]; 323.15 K): 6.95 ± 0.15 mPa·s; viscosity ([1]; 328.15 K): 5.96 ± 0.13 mPa·s; mass density ([1]; 333.15 K): 1085.6 ± 11 kg/m3; viscosity ([1]; 333.15 K): 5.22 ± 0.11 mPa·s; mass density ([1]; 338.15 K): 1082.1 ± 11 kg/m3; viscosity ([1]; 338.15 K): 4.53 ± 0.1 mPa·s
OCCO [1,2-ethanediol]	17.4 ± 0.39	13.8 ± 0.31	1107.1 ± 11	11.5 ± 0.26	1103.5 ± 11	9.42 ± 0.21	1100.3 ± 11	8.1 ± 0.18	6.95 ± 0.15	1093.5 ± 11	5.96 ± 0.13	5.22 ± 0.11	1085.6 ± 11	4.53 ± 0.1	1082.1 ± 11	
OCC(O)CO [glycerol]	943.8 ± 76	628.9 ± 44	1254.7 ± 13	431.9 ± 26	1252.2 ± 12	295.9 ± 15	1249.4 ± 12	185.8 ± 7.7	151.2 ± 5.4	1242.3 ± 12	108.4 ± 3.3	84.8 ± 2.2	1236.1 ± 12	62.2 ± 1.6	1232.8 ± 12	mass density ([2]; 298.15 K): 1257.8 ± 13 kg/m3; mass density ([2]; 318.15 K): 1245.8 ± 12 kg/m3; mass density ([2]; 328.15 K): 1239.3 ± 12 kg/m3
